Laboratory results taken from BindingDB's records for doi:10.1016/j.bmcl.2010.03.073 (Methylgene, 2010).

What was measured:
[1] = Inhibition of c-Met-mediated cell migration of human A549 cells by would healing
[2] = Inhibition of c-Met-mediated scattering in HGF-stimulated human DU145 cells

IC50 [1]: 400 nM
IC50 [2]: 2000 nM
Structure (SMILES): Cn1cnc(-c2cc3nccc(Oc4ccc(NC(=O)c5cnn(-c6ccccc6)c5C(F)(F)F)cc4F)c3s2)c1 [N-(3-fluoro-4-(2-(1-methyl-1H-imidazol-4-yl)thieno[3,2-b]pyridin-7-yloxy)phenyl)-1-phenyl-5-(trifluoromethyl)-1H-pyrazole-4-carboxamide]
